The results in this text go back to patent publication US20250230165A1, “HETEROCYCLIC COMPOUNDS FOR USE IN THE TREATMENT OF CANCER” (ARTIOS PHARMA LIMITED, priority 2021, published 2025).

This experiment deals with T1, Human Polθ polymerase domain (aa1820-2590) (Homo sapiens, UniProt O75417).
T1 construct: Human Polθ polymerase domain (aa1820-2590) was expressed in E. coli; made in house; host or cells: E. coli
T1 sequence (O75417 1820-2590): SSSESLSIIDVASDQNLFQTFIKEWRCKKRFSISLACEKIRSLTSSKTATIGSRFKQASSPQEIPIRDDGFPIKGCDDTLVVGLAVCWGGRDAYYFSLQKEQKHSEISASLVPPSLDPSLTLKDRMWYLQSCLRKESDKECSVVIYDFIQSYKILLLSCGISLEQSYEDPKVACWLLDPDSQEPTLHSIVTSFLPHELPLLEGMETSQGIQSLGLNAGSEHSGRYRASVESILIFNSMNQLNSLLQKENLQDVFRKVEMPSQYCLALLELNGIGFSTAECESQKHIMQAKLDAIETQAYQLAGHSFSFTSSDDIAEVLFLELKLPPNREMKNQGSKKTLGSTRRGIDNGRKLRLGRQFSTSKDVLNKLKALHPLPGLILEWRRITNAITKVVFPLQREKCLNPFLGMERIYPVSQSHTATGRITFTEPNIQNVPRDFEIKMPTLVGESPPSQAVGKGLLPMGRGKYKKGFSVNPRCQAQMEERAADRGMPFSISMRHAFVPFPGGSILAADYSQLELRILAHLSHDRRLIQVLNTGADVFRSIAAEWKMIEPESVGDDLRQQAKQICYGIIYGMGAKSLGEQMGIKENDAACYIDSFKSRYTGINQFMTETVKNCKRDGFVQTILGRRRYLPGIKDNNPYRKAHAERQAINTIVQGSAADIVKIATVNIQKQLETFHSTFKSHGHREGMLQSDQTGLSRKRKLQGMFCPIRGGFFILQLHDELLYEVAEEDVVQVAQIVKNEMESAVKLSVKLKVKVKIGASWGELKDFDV
Briefly: Polθ Polymerase Domain Kinact/KI Assay (PicoGreen). Type of experiment: biochemical. To be noted: 0.8 nM Polθ, 100 nM DNA substrate, kobs vs [I] fit for 2-step covalent inhibitor. The method in brief: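 Kinact and KI derive from fitting kobs versus [I], where kobs were fitted from EDTA-stopped PicoGreen time courses (up to 60 min) in Tris pH 7.5 buffer with 1% DMSO, 0.8 nM enzyme, 100 nM DNA and […].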

For the compound `CC(=O)N1CCN(C/C=C/C(=O)Nc2ccc(CN3C[C@H]4CC(=O)N(c5cc(C(F)(F)F)cc(C)n5)[C@@H]4C(=O)N(C)c4cccc(C)c43)cc2)CC1` [Example 249, (E)-4-(4-acetylpiperazin-1-yl)-N-(4-(((3aR,11aS)-6,10-dimethyl-1-(6-methyl-4-(trifluoromethyl)pyridin-2-yl)-2,11-dioxo-1,2,3,3a,4,10,11,11a-octahydro-5H-benzo[b]pyrrolo[2,3-f][1,4]diazocin-5-yl)methyl)phenyl)but-2-enamide], the Kinact/Kl was determined as 0.11 µM⁻¹ s⁻¹.

Compound `C=CC(=O)N1Cc2cc(CN3C[C@H]4CC(=O)N(c5cc(C(F)(F)F)cc(C)n5)[C@@H]4C(=O)N(C)c4cccc(Cl)c43)cnc2[C@H]1CO` (racemic) [Example 231, (3aR,11aS)-5-(((S/R)-6-acryloyl-7-(hydroxymethyl)-6,7-dihydro-5H-pyrrolo[3,4-b]pyridin-3-yl)methyl)-6-chloro-10-methyl-1-(6-methyl-4-(trifluoromethyl)pyridin-2-yl)-1,3a,4,5,10,11a-hexahydro-2H-benzo[b]pyrrolo[2,3-f][1,4]diazocine-2,11(3H)-dione] registered a Kinact/Kl of 0.86 µM⁻¹ s⁻¹.

`C=C(CN(C)C)C(=O)N1CC2(CC(CN3C[C@H]4CC(=O)N(c5cc(C(F)(F)F)cc(C)n5)[C@@H]4C(=O)N(C)c4cccc(C)c43)C2)C1` [Example 328, (3aR,11aS)-5-((2-(2-((dimethylamino)-methyl)acryloyl)-2-azaspiro[3.3]heptan-6-yl)methyl)-6,10-dimethyl-1-(6-meth-yl-4-(trifluorometh-yl)pyridin-2-yl)-1,3a, 4,5,10,11a-hexa-hydro-2H-benzo[b] pyrrolo[2,3-f][1,4] diazocine-2,11(3H)-dione]: the Kinact/Kl turned out to be 4.11 µM⁻¹ s⁻¹.

For `Cc1cc(C(F)(F)F)cc(N2C(=O)C[C@@H]3CN(CCCOC4CN(C(=O)C5=CCCNC5)C4)c4c(C)cccc4N(C)C(=O)[C@H]32)n1` [Example 82, (3aR,11aS)-6,10-dimethyl-1-(6-methyl-4-(trifluoromethyl)pyridin-2-yl)-5-(3-((1-(1,2,5,6-tetrahydropyridine-3-carbonyl)azetidin-3-yl)oxy)propyl)-1,3a,4,5,10,11a-hexahydro-2H-benzo[b]pyrrolo[2,3-f][1,4]diazocine-2,11(3H)-dione], the Kinact/Kl turned out to be 0.92 µM⁻¹ s⁻¹.

`C=C(CN(CC)CC)C(=O)N1CC(OCCCN2C[C@H]3CC(=O)N(c4cc(C(F)(F)F)cc(C)n4)[C@@H]3C(=O)N(C)c3cccc(Cl)c32)C1` [Example 166, (3aR, 11aS)-6-chloro-5-(3-((1-(2-((diethylamino)methyl)acryloyl)azetidin-3-yl)oxy)propyl)-10-methyl-1-(6-methyl-4-(trifluoromethyl)pyridin-2-yl)-1,3a,4,5,10,11a-hexahydro-2H-benzo[b]pyrrolo[2,3-f][1,4]diazocine-2,11(3H)-dione] had a Kinact/Kl of 3.41 µM⁻¹ s⁻¹.

On to `C=CC(=O)N1CC(C)(N2CCC(CN3C[C@H]4CC(=O)N(c5cc(C(F)(F)F)cc(C)n5)[C@@H]4C(=O)N(C)c4cccc(Cl)c43)CC2)C1` [Example 137, (3aR,11aS)-5-((1-(1-acryloyl-3-methylazetidin-3-yl)piperidin-4-yl)methyl)-6-chloro-10-methyl-1-(6-methyl-4-(trifluoromethyl)pyridin-2-yl)-1,3a,4,5,10,11a-hexahydro-2H-benzo[b]pyrrolo[2,3-f][1,4]diazocine-2,11(3H)-dione], for which the Kinact/Kl turned out to be 0.98 µM⁻¹ s⁻¹.

`C#CC(=O)N1Cc2nc(CN3C[C@H]4CC(=O)N(c5cc(C(F)(F)F)cc(C)n5)[C@@H]4C(=O)N(C)c4cccc(Cl)c43)cn2C[C@@H]1C` (racemic) [Example 172a, (3aR,11aS)-6-chloro-10-meth-yl-1-(6-methyl-4-(trifluorometh-yl)pyridin-2-yl)-5-(((S/R)-6-meth-yl-7-propioloyl-5,6,7,8-tetra-hydroimidazo [1,2-a]pyrazin-2-yl)methyl)-1,3a, 4,5,10,11a-hexa-hydro-2H-benzo [b]pyrrolo[2,3-f] [1,4]diazocine-2,11(3H)-dione] gave a Kinact/Kl of 0.90 µM⁻¹ s⁻¹.

In the case of `C=CC(=O)N1Cc2nc(CN3C[C@H]4CC(=O)N(c5cc(C(F)(F)F)cc(C)n5)[C@@H]4C(=O)N(C)c4cccc(C)c43)cn2C[C@@H]1C(F)(F)F` (racemic) [Example 322b, (3aR,11aS)-5-(((R/S)-7-acryloyl-6-(trifluoromethyl)-5,6,7,8-tetrahydro-imidazo[1,2-a]pyr-azin-2-yl)methyl)-6,10-dimethyl-1-(6-methyl-4-(trifluoro-methyl)pyridin-2-yl)-1,3a,4,5,10,11a-hexahydro-2H-benzo[b]pyrrolo[2,3-f][1,4]diazocine-2,11(3H)-dione], the Kinact/Kl was 1.13 µM⁻¹ s⁻¹.

`C=C(CN(C)C)C(=O)N1CC(c2ccc(CN3C[C@H]4CC(=O)N(c5cc(C(F)(F)F)cc(C)n5)[C@@H]4C(=O)N(C)c4cccc(C)c43)cc2)C1` [Example 186, (3aR,11aS)-5-(4-(1-(2-((dimethyl-amino)methyl)-acryloyl)azetidin-3-yl)benzyl)-6,10-dimethyl-1-(6-methyl-4-(trifluoro-methyl)pyridin-2-yl)-1,3a,4,5,10,11a-hexahydro-2H-benzo[b]pyrrolo [2,3-f][1,4]diazo-cine-2,11(3H)-dione] yielded a Kinact/Kl of 3.23 µM⁻¹ s⁻¹.

The compound `C=C(CN(C)C)C(=O)N1Cc2ccc(CN3C[C@H]4CC(=O)N(c5cc(C(F)(F)F)cc(C)n5)[C@@H]4C(=O)N(C)c4cccc(Cl)c43)cc2C1` [Example 163, (3aR,11aS)-6-chloro-5-((2-(2-((dimethylamino)methyl)acryloyl)isoindolin-5-yl)methyl)-10-methyl-1-(6-methyl-4-(trifluoromethyl)pyridin-2-yl)-1,3a,4,5,10,11a-hexahydro-2H-benzo[b]pyrrolo[2,3-f][1,4]diazocine-2,11(3H)-dione] displayed a Kinact/Kl of 1.82 µM⁻¹ s⁻¹.

With `C=CC(=O)N1CCN2C[C@@H](CN3C[C@H]4CC(=O)N(c5cc(C(F)(F)F)cc(C)n5)[C@@H]4C(=O)N(C)c4cccc(F)c43)N(C)CC2C1` (single isomer, unassigned) [Example 140b], the Kinact/Kl is 0.23 µM⁻¹ s⁻¹.

`C=CC(=O)N1Cc2nc(CN3C[C@H]4CC(=O)N(c5cc(C(F)(F)F)cc(C)n5)[C@@H]4C(=O)N(C)c4cccc(Cl)c43)ccc2C1CC#N` (single isomer, unassigned) [Example 290b] registered a Kinact/Kl of 1.30 µM⁻¹ s⁻¹.

`C=CC(=O)N1CC(=O)N2CCN(CCN3C[C@H]4CC(=O)N(c5cc(C(F)(F)F)cc(C)n5)[C@@H]4C(=O)N(C)c4cccc(F)c43)CC2C1` (mixture of isomers) [Example 62a, (3aR,11aS)-5-(2-((R/S)-8-acryloyl-6-oxooctahydro-2H-pyrazino[1,2-a]pyrazin-2-yl)ethyl)-6-fluoro-10-methyl-1-(6-methyl-4-(trifluoromethyl)pyridin-2-yl)-1,3a,4,5,10,11a-hexahydro-2H-benzo[b]pyrrolo[2,3-f][1,4]diazocine-2,11(3H)-dione] returned a Kinact/Kl of 3.31 µM⁻¹ s⁻¹.

Consider `C=CC(=O)NC1Cc2ccc(CN3C[C@H]4CC(=O)N(c5cc(C(F)(F)F)cc(C)n5)[C@@H]4C(=O)N(C)c4cccc(Cl)c43)cc2C1` (stereo partly drawn) [Example 286, N-(5-(((3aR,11aS)-6-chloro-10-methyl-1-(6-methyl-4-(trifluoromethyl)pyridin-2-yl)-2,11-dioxo-1,2,3,3a,4,10,11,11a-octahydro-5H-benzo[b]pyrrolo[2,3-f][1,4]diazocin-5-yl)methyl)-2,3-dihydro-1H-inden-2-yl)acrylamide], for which the Kinact/Kl was 0.61 µM⁻¹ s⁻¹.

The compound `C=C(COC(C)=O)C(=O)N1CC(OCCCN2C[C@H]3CC(=O)N(c4cc(C(F)(F)F)cc(C)n4)[C@@H]3C(=O)N(C)c3cccc(Cl)c32)C1` [Example 78, 2-(3-(3-((3aR,11aS)-6-chloro-10-methyl-1-(6-methyl-4-(trifluoromethyl)pyridin-2-yl)-2,11-dioxo-1,2,3,3a,4,10,11,11a-octahydro-5H-benzo[b]pyrrolo[2,3-f][1,4]diazocin-5-yl)propoxy)azetidine-1-carbonyl)allyl Acetate] displayed a Kinact/Kl of 2.06 µM⁻¹ s⁻¹.

In turn, `C=CC(=O)N1CC(n2cnc(CN3C[C@H]4CC(=O)N(c5cc(C(F)(F)F)cc(C)n5)[C@@H]4C(=O)N(C)c4cccc(Cl)c43)c2)C1` [Example 39, (3aR,11aS)-5-((1-(1-acryloylazetidin-3-yl)-1H-imidazol-4-yl)methyl)-6-chloro-10-methyl-1-(6-methyl-4-(trifluoromethyl)pyridin-2-yl)-1,3a,4,5,10,11a-hexahydro-2H-benzo[b]pyrrolo[2,3-f][1,4]diazocine-2,11(3H)-dione] displayed a Kinact/Kl of 3.42 µM⁻¹ s⁻¹.
